Drawing on US20220153734A1, “Pyrazolopyridine Compounds For IRE1 Inhibition” (Optikira, LLC, priority 2019, published 2022), this text covers IC50 for nine compounds.

The term IC50 denotes the midpoint of a concentration-inhibition curve. High values mean a need for much substance, low ones inhibition by little substance.

For experiment [1], the system named is ARPE-19 cells stably expressing XBP1 (a.a. 1-376). Nature of the experiment: Cellular XBP1 splicing assay (NanoLuc luciferase, thapsigargin). The experiment is classed as cell-based. The settings on record: thapsigargin 150 nM. The protocol: Cellular XBP1 Splicing Assay
ARPE-19 cells stably expressing XBP1 (a.a. 1-376) with nano-luciferase gene sequence linked so it is in frame when XBP1 is spliced, were cultured in F12 media, 10% FBS, 0.044% sodium bicarbonate, 150 μg/ml hygromycin B and seeded for assays at 5,000 cells in 384 well plates in culture media without hygromycin B and incubated at 37° C./5% CO2. After overnight incubation test compounds were added to the cell plate in a 10-point ½ log dilution series in duplicate (final DMSO concentration 0.117%). After further incubation of 30 minutes thapsigargin was added (final concentration 150 nM) and then another 4 hour incubation. A NanoLuc luciferase assay (Promega) was used according to the manufacturer's instructions to detect the luciferase and luminescence measured on a luminometer (EnVision, PerkinElmer). IC50 values calculated by fitting a sigmoidal curve to percent inhibition of control of compound concentration.

In experiment [2] the target is T1, IRE1α (Homo sapiens, UniProt O75460).
T1 construct: purchased Signal Chem E31-11G
T1 sequence (O75460 468-977 limits assumed): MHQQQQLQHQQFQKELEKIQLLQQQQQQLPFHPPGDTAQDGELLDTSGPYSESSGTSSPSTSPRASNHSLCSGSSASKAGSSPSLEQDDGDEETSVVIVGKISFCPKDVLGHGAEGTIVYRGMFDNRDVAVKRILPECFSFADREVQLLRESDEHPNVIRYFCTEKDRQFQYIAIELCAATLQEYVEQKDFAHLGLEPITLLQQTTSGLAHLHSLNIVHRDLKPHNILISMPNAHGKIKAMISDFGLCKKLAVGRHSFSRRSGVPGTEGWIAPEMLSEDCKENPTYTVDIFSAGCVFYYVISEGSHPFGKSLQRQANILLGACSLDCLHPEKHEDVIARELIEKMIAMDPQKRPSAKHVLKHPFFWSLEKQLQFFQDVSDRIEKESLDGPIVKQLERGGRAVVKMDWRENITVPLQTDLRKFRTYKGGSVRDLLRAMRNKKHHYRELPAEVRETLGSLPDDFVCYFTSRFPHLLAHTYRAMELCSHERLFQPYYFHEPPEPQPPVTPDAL
Kind of experiment: Biochemical assay: inhibition of RNase activity of IRE1α. The settings on record: enzyme 0.325 nM, substrate 100 nM, 20 minutes. The protocol:
Biochemical Assay: Inhibition of RNase Activity of IRE1α
The RNase reactions were performed in 384 well black ProxiPlate-384 Plus plates (PERKIN Elmer) using 50 mM Tris assay buffer with 0.5 mM MgCl2, 10 mM KCl, 0.03% Tween, 2 mM DTT and 1% DMSO. Test compounds were prepared on the day of assay and dispensed using D300 digital dispenser as a 10-point ½ log dilution series in duplicate, normalized to a final DMSO concentration of […]. Test compounds were pre-incubated for 30 min at room temperature with IRE1α kinase (E31-11G from Signal Chem) in 2.5 μL of assay buffer. Then 2.5 μl of assay buffer containing substrate (5′ Alexa Fluor 647-rCrArU rGrUrC rCrGrC rArGrC rGrCrArUrG-Iowa Black RQ quencher 3′) added, giving a final concentration of enzyme of 0.325 nM and of substrate of 100 nM. After 20 minutes incubation at room temperature the reactions were stopped by added 5 μL of 5M urea, incubated at room temperature for 10 minutes and fluorescence measured on a plate reader (EnVision, PerkinElmer). IC50 values calculated by fitting a sigmoidal curve to percent inhibition of control versus compound concentration.

On to `CCn1nc(-c2cc(F)c(NS(=O)(=O)c3ccccc3F)cc2F)c2c(N)ncc(C3=CCC(NC4COC4)CC3)c21` (stereo not drawn) [Compound B30, N-(4-(4-amino-1-ethyl-7-(4-(oxetan-3-ylamino)cyclohex-1-en-1-yl)-1H-pyrazolo[4,3-c]pyridin-3-yl)-2,5-difluorophenyl)-2-fluorobenzenesulfonamide], for which the half-maximal inhibitory concentration (IC50) was 0.74 µM in experiment [1] (Homo sapiens, ARPE-19, 4 h) and 0.082 µM in experiment [2].
For `CC(F)CNC1CC=C(c2cnc(N)c3c(-c4ccc(NS(=O)(=O)c5ccccc5Cl)c(F)c4)nn(C(C)C)c23)CC1` (single isomer, unassigned) [Compound B46, N-(4-(4-amino-7-(4-((2-fluoropropyl)amino)cyclohex-1-en-1-yl)-1-isopropyl-1H-pyrazolo[4,3-c]pyridin-3-yl)-2-fluorophenyl)-2-chlorobenzenesulfonamide], in that order: 0.022 µM and 0.0047 µM.
The like results for `COCCN[C@H]1CC[C@H](c2cnc(N)c3c(-c4cc(F)c(NS(=O)(=O)c5ccc(F)cc5)cc4F)nn(C(C)C)c32)CC1` [Compound A32, N-(4-(4-amino-1-isopropyl-7-((1r,4r)-4-((2-methoxyethyl)amino)cyclohexyl)-1H-pyrazolo[4,3-c]pyridin-3-yl)-2,5-difluorophenyl)-4-fluorobenzenesulfonamide] were, in that order, 0.11 µM and 0.017 µM.
The like results for `COCCN[C@H]1CC[C@H](c2cnc(N)c3c(-c4cc(F)c(NS(=O)(=O)c5ccccc5Cl)cc4F)nn(C(C)C)c32)CC1` [Compound A19, N-(4-(4-amino-1-isopropyl-7-((1r,4r)-4-((2-methoxyethyl)amino)cyclohexyl)-1H-pyrazolo[4,3-c]pyridin-3-yl)-2,5-difluorophenyl)-2-chlorobenzenesulfonamide] were, in that order, 0.004 µM and 0.0061 µM.
As to `CC(C)n1nc(-c2cc(F)c(NS(=O)(=O)c3ccccc3F)cc2F)c2c(N)ncc([C@H]3CC[C@H](N(C)C4COC4)CC3)c21` [Compound A38], the IC50 in experiment [1] (Homo sapiens, ARPE-19, 4 h) was found to be 0.013 µM; in experiment [2], 0.012 µM.
`COCCN[C@H]1CC[C@H](c2cnc(N)c3c(-c4ccc(NS(=O)(=O)c5ccccc5F)c(F)c4)nn(C(C)C)c32)CC1` [Compound A6, N-(4-(4-amino-1-isopropyl-7-((1r,4r)-4-((2-methoxyethyl)amino)cyclohexyl)-1H-pyrazolo[4,3-c]pyridin-3-yl)-2-fluorophenyl)-2-fluorobenzenesulfonamide]: the IC50 in experiment [1] (Homo sapiens, ARPE-19, 4 h) turned out to be 0.0027 µM; in experiment [2], 0.0026 µM.
For `CCOc1ccc(F)c(S(=O)(=O)Nc2cc(F)c(-c3nn(C(C)C)c4c3c(N)ncc4[C@H]3CC[C@H](NCCOC)CC3)cc2F)c1` [Compound A8, N-(4-(4-amino-1-isopropyl-7-((1r,4r)-4-((2-methoxyethyl)amino)cyclohexyl)-1H-pyrazolo[4,3-c]pyridin-3-yl)-2,5-difluorophenyl)-5-ethoxy-2-fluorobenzenesulfonamide], in that order: 0.0039 µM and 0.0019 µM.
With `CC(C)n1nc(-c2ccc(NS(=O)(=O)c3ccccc3F)c(F)c2)c2c(N)ncc(C3=CCC(NC4COC4)CC3)c21` (single isomer, unassigned) [Compound B58, N-(4-(4-amino-1-isopropyl-7-(4-(oxetan-3-ylamino)cyclohex-1-en-1-yl)-1H-pyrazolo[4,3-c]pyridin-3-yl)-2-fluorophenyl)-2-fluorobenzenesulfonamide], the IC50 in experiment [1] (4 hour) stood at 0.25 µM; in experiment [2] it was 0.12 µM.
Regarding `CC(C)n1nc(-c2ccc(NS(=O)(=O)c3ccccc3F)c(F)c2)c2c(N)ncc([C@H]3CC[C@@H](NC4COC4)CC3)c21` [Compound A12, N-(4-(4-amino-1-isopropyl-7-((1s,4s)-4-(oxetan-3-ylamino)cyclohexyl)-1H-pyrazolo[4,3-c]pyridin-3-yl)-2-fluorophenyl)-2-fluorobenzenesulfonamide], the IC50 was 1.4 µM in experiment [1] (Homo sapiens, ARPE-19, 4 h) and 0.44 µM in experiment [2].
